Laboratory results from patent US8455492B2, “Methods for treating retinal diseases” (Allergan, Inc., priority 1995, dated 2013).
Read-outs that look alike come from different tables or passages of the source.

Experiments:
[1] = test system: rat hippocampal neuronal cultures; assay: Glutamate induced excitotoxic effects on nerve cells (percentage of dead cells, trypan blue); format: cell-based; conditions: FIG. 1; day 8; 1 mM glutamate; AGN-191103 0.1 nM, MK-801 10 nM
Description: Low-density rat hippocampal neuronal cultures were prepared by the procedure of Goslin and Banker. […] Coverslips (13 mm) were placed in staining racks, rinsed in distilled water (four rinses, 1 min. each) to remove dust and transferred to concentrated HNO3 for 36 hours. Coverslips were rinsed in distilled water (four changes over 3 hours) and sterilized with dry heat (overnight at 225° C.). The coverslips were transferred to 24-well dishes, one coverslip per well. To support the coverslips above the glia during coculturing, paraffin dots were placed on dishes, and UV irradiation (30 min.) was applied before the coverslips were introduced. One mg/mL of poly-L-lysine hydrobromide (PLL) (Sigma) (MW 30,000-70,000) was dissolved in borate buffer (0.1 M, pH 8.5), filtered, sterilized and used to cover each coverslip overnight. The PLL was removed, coverslips were rinsed in distilled water (two washes, 2 hrs. each), plating medium [Eagle's MEM with Earle's salts containing extra glucose (600 mg/L) and 10% horse serum] was added and the dishes were stored in an incubator. […]
After 24 hrs. of incubation, cells were stained with trypan blue. Live and dead neurons were counted from randomly selected culture fields (5 fields from each coverslip). Percentage of dead cells was calculated.

intraocular pressure [2] = conditions: cats; topical to the cornea; cited from earlier work
intraocular pressure [3] = conditions: monkeys; topical to the cornea; cited from earlier work
retina = conditions: FIG. 5; topical 10 μl one hour before ischemia insult; ERG one week after insult
Description: FIG. 5 is a bar graph showing the results of a study to determine the topical efficacy of brimonidine in neuroprotection. The rat acute retinal ischemia model was used to provide the noxious action. Brimonidine was applied topically one hour before ischemia insult, 10 μl to one eye, 10 μl saline to the other eye. The ERG (electroretinogram) was measured one week after the insult.

intraocular pressure [4] = conditions: rabbits; topical to the cornea; cited from earlier work
rat optic nerve = conditions: FIG. 3, optic nerve crush in rats

## C[C@]12N[C@H](Cc3ccccc31)c1ccccc12 [MK-801, dizocilpine]
[1]
  protection of cells from glutamate induced neurotoxicity (percentage of cells killed): comparable effects in protecting cells from glutamate induced neurotoxicity

## Brc1c(NC2=NCCN2)ccc2nccnc12 [brimonidine]
Intraocular pressure [2]
  reduction of intraocular pressure: effective in reducing intraocular pressure
Intraocular pressure [3]
  reduction of intraocular pressure: effective in reducing intraocular pressure
retina
  topical neuroprotection (percent of ERG signal recovery): provides topical neuroprotection in a dose dependent manner
Intraocular pressure [4]
  reduction of intraocular pressure: effective in reducing intraocular pressure

## Clc1cccc(Cl)c1N=C1NCCN1 [clonidine]
Rat optic nerve
  maximal CAP response relative to AGN 191103: about half the maximal CAP response of AGN 191013
Rat optic nerve; four concentrations
  neuroprotective activity (maximal CAP amplitude) versus vehicle: some neuroprotective activity over vehicle alone
